Measured values from PubChem BioAssay (NCI).
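At the GI50, growth is halved. The concentration for full growth arrest is given as TGI.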

Legend:
Experiment in all cases: NCI-60 cell line screen, 384-well format
[1] = test system: RPMI-8226 leukemia
[2] = test system: SF-539 CNS
[3] = test system: SF-295 CNS
[4] = test system: HOP-62 NSCLC
[5] = test system: SR leukemia
[6] = test system: A549 NSCLC
[7] = test system: SNB-19 CNS
[8] = test system: UACC-257 melanoma
[9] = test system: SNB-75 CNS
[10] = test system: HCT-15 colon
[11] = test system: BT-549 breast
[12] = test system: UO-31 renal
[13] = test system: OVCAR-5 ovarian
[14] = test system: HT29 colon
[15] = test system: NCI-H522 lung
[16] = test system: NCI-H460 NSCLC
[17] = test system: 786-0 renal
[18] = test system: MDA-MB-435 melanoma
[19] = test system: IGROV1 ovarian
[20] = test system: SK-MEL-5 melanoma
[21] = test system: M14 melanoma
[22] = test system: OVCAR-4 ovarian
[23] = test system: MCF7 breast
[24] = test system: DU-145 prostate
[25] = test system: OVCAR-8 ovarian
[26] = test system: EKVX NSCLC
[27] = test system: TK-10 renal
[28] = test system: K-562 leukemia
[29] = test system: PC-3 prostate
[30] = test system: T-47D breast
[31] = test system: KM12 colon
[32] = test system: NCI/ADR-RES ovarian
[33] = test system: MDA-MB-468 breast
[34] = test system: COLO 205 colon
[35] = test system: NCI-H322M lung
[36] = test system: HOP-92 NSCLC
[37] = test system: SK-OV-3 ovarian
[38] = test system: SW-620 colon
[39] = test system: MALME-3M melanoma
[40] = test system: OVCAR-3 ovarian
[41] = test system: SF-268 CNS
[42] = test system: RXF 393 renal
[43] = test system: A498 renal
[44] = test system: HL-60(TB) leukemia
[45] = test system: CCRF-CEM leukemia
[46] = test system: HS 578T breast
[47] = test system: NCI-H23 lung
[48] = test system: CAKI-1 renal
[49] = test system: MOLT-4 leukemia
[50] = test system: LOX IMVI melanoma
[51] = test system: HCC-2998 colon
[52] = test system: SN12C renal
[53] = test system: UACC-62 melanoma
[54] = test system: SK-MEL-28 melanoma
[55] = test system: ACHN renal
[56] = test system: MDA-MB-231 breast
[57] = test system: NCI-H226 lung

SMILES: O=C(CC1(O)C(=O)Nc2c(Cl)ccc(Cl)c21)c1ccc(C2CC2)cc1 (centres undefined)
- GI50 [1]: 133 nM
- TGI [1]: 271 nM
- GI50 [2]: 206 nM
- TGI [2]: 907 nM
- GI50 [3]: 112 nM
- TGI [3]: 853 nM
- GI50 [4]: 199 nM
- TGI [4]: 13.4 µM
- GI50 [5]: 16.9 nM
- TGI [5]: 33.7 nM
- GI50 [6]: 546 nM
- TGI [6]: 13.8 µM
- GI50 [7]: 528 nM
- TGI [7]: 15.3 µM
- GI50 [8]: 280 nM
- TGI [8]: 2340 nM
- GI50 [9]: 96.7 nM
- TGI [9]: 3.17 µM
- GI50 [10]: 51.9 nM
- TGI [10]: 2060 nM
- GI50 [11]: 49 nM
- TGI [11]: 2730 nM
- GI50 [12]: 10.6 µM
- TGI [12]: 23 µM
- GI50 [13]: 900 nM
- TGI [13]: 17.7 µM
- GI50 [14]: 50.5 nM
- TGI [14]: 248 nM
- GI50 [15]: 45.1 nM
- TGI [15]: 179 nM
- GI50 [16]: 225 nM
- TGI [16]: 611 nM
- GI50 [17]: 377 nM
- TGI [17]: 12 µM
- GI50 [18]: 24.5 nM
- TGI [18]: 59.6 nM
- GI50 [19]: 882 nM
- TGI [19]: 17 µM
- GI50 [20]: 142 nM
- TGI [20]: 414 nM
- GI50 [21]: 54 nM
- TGI [21]: 266 nM
- GI50 [22]: 369 nM
- TGI [22]: 7.59 µM
- GI50 [23]: 111 nM
- TGI [23]: 13.5 µM
- GI50 [24]: 338 nM
- TGI [24]: 2490 nM
- GI50 [25]: 257 nM
- TGI [25]: 1230 nM
- GI50 [26]: 385 nM
- TGI [26]: 16.9 µM
- GI50 [27]: 10.4 µM
- TGI [27]: 25.2 µM
- GI50 [28]: 46.2 nM
- TGI [28]: 211 nM
- GI50 [29]: 372 nM
- TGI [29]: 14.4 µM
- GI50 [30]: 323 nM
- TGI [30]: 18.2 µM
- GI50 [31]: 74.7 nM
- TGI [31]: 2770 nM
- GI50 [32]: 69.2 nM
- TGI [32]: 276 nM
- GI50 [33]: 30.2 nM
- TGI [33]: 94.4 nM
- GI50 [34]: 124 nM
- TGI [34]: 448 nM
- GI50 [35]: 845 nM
- TGI [35]: 18 µM
- GI50 [36]: 210 nM
- TGI [36]: 11 µM
- GI50 [37]: 238 nM
- TGI [37]: 14.1 µM
- GI50 [38]: 45.7 nM
- TGI [38]: 15.5 µM
- GI50 [39]: 61.5 nM
- TGI [39]: 10.3 µM
- GI50 [40]: 73.1 nM
- TGI [40]: 286 nM
- GI50 [41]: 387 nM
- TGI [41]: 11.2 µM
- GI50 [42]: 155 nM
- TGI [42]: 793 nM
- GI50 [43]: 226 nM
- TGI [43]: 10.7 µM
- GI50 [44]: 37.7 nM
- TGI [44]: 120 nM
- GI50 [45]: 130 nM
- TGI [45]: 262 nM
- GI50 [46]: 119 nM
- TGI [46]: 284 nM
- GI50 [47]: 192 nM
- TGI [47]: 759 nM
- GI50 [48]: 173 nM
- TGI [48]: 15.2 µM
- GI50 [49]: 47.3 nM
- TGI [49]: 135 nM
- GI50 [50]: 434 nM
- TGI [50]: 4.65 µM
- GI50 [51]: 277 nM
- TGI [51]: 4.61 µM
- GI50 [52]: 575 nM
- TGI [52]: 20.1 µM
- GI50 [53]: 38.9 nM
- TGI [53]: 5.04 µM
- GI50 [54]: 221 nM
- TGI [54]: 18.9 µM
- GI50 [55]: 743 nM
- TGI [55]: 17.2 µM
- GI50 [56]: 182 nM
- TGI [56]: 16.3 µM
- GI50 [57]: 732 nM
- TGI [57]: 14.2 µM
